2 compounds from patent publication US9815867B2, “Peptide for inhibiting vascular endothelial growth factor receptor” (The University of Tokyo, priority 2012, dated 2017) can be followed below.

One experiment addresses T1, mouse VEGFR2 (Mus musculus, UniProt P35918).
T1 construct: Fc (fusion partner)
In words: Binding of cyclic peptide to mouse VEGFR2 by BLI method (ForteBio). The conditions noted are these: VEGFR2-Fc fusion immobilized, 30° C., read-out: koff, dissociation rate constant for mouse VEGFR2. The protocol: (§1) A dissociation constant of binding between the cyclic peptide L1 or BL1 thus synthesized and human VEGFR2 or mouse VEGFR2 was determined by BLI method (ForteBio). A fusion protein of VEGFR2 and Fc was immobilized onto Anti-human IgG Capture Biosensors and the cyclic peptide L1 or BL1 varied in concentration was analyzed. The temperature was set at 30° C.

In another experiment the target is T2, human VEGFR2 (Homo sapiens, UniProt P35968).
T2 construct: Fc (fusion partner)
T2 sequence (P35968 20-764 limits assumed): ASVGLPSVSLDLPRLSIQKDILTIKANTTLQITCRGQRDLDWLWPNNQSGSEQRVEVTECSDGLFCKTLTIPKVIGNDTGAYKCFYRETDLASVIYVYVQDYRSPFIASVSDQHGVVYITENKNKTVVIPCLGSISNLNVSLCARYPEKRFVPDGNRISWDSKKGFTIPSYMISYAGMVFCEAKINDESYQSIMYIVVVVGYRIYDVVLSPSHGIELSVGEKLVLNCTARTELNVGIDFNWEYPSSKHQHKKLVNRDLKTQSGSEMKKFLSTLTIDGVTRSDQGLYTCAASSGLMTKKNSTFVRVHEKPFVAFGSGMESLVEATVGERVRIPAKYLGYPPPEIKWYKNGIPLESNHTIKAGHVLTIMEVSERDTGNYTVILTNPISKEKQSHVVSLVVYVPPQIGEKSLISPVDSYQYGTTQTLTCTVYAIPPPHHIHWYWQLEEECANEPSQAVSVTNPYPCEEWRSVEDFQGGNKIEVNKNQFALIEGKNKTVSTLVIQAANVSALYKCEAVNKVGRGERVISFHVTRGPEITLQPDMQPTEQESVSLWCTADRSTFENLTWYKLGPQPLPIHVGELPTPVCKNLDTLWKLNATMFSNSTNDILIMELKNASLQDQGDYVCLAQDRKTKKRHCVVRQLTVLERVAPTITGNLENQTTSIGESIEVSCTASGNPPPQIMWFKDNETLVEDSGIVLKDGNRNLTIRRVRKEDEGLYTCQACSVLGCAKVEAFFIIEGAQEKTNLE
In words: Binding of cyclic peptide to human VEGFR2 by BLI method (ForteBio). The conditions noted are these: VEGFR2-Fc fusion immobilized, 30° C., read-out: koff, dissociation rate constant for human VEGFR2. The protocol: as §1

The next experiment concerns HUVEC. In kind it is cell-based, human. To be noted: 24 h. The protocol:
Next, growth inhibiting activity of L1 and BL1 against HUVEC was examined by BrdU method. HUVEC cells were treated for 30 minutes with a cyclic peptide L1 or BL1 varied in concentration and then, co-incubated with the cyclic peptide and 10 ng/mL of VEGF. Twenty four hours later, the cells were labeled with BrdU for 4 hours in the presence of the cyclic peptide and VEGF. Then, the resulting cells were fixed, stained with a peroxidase-conjugated anti-BrdU antibody, and peroxidase activity was detected using a tetramethylbenzidine color colorimetric substrate. The cells without peptide and VEGF treatments and the cells without only peptide treatment were used as a control.

Experiment [1] deals with HUVEC and human skin-derived fibroblasts. In words: VEGF-dependent angiogenesis, Kurabo angiogenesis kit (HUVEC and human skin-derived fibroblast co-culture). Format: cell-based. The conditions noted are these: 10 μm-L1 administered group; 10 ng/mL VEGF, 11 days, anti-CD31 staining; compared with 50 μM Suramin. The protocol:
Next, angiogenesis kit of Kurabo was used to study the influence of L1 or BL1 on VEGF-dependent angiogenesis. HUVEC and human skin-derived fibroblasts were co-cultured in the presence of 10 ng/mL of VEGF and L1 or BL1 varied in concentration. After culturing at 37° C., supplementation with VEGF and peptide having the same concentration three days, six days, and eight days later, and fixation of the HUVEC cells 11 days later, the resulting cells were stained with an anti-CD31 antibody to visualize them and analyzed by making use of an image analysis service included in the kit. As a control, 50 μM of an angiogenesis inhibitor Suramin was added instead of the peptide.

Starred links: 1 amine or outer side, 2 acyl side, 3 side chain; linkers in the order of their positions; H or OH if unused. Positions of bridges follow the written chain, without caps; N, C: chain ends. Residues, ends and D or L forms follow the SMILES beside them. X1 = O=C(C[*:2])Nc1cccc(C(=O)[*:1])c1

T1 sequence (P35918 20-762 limits assumed): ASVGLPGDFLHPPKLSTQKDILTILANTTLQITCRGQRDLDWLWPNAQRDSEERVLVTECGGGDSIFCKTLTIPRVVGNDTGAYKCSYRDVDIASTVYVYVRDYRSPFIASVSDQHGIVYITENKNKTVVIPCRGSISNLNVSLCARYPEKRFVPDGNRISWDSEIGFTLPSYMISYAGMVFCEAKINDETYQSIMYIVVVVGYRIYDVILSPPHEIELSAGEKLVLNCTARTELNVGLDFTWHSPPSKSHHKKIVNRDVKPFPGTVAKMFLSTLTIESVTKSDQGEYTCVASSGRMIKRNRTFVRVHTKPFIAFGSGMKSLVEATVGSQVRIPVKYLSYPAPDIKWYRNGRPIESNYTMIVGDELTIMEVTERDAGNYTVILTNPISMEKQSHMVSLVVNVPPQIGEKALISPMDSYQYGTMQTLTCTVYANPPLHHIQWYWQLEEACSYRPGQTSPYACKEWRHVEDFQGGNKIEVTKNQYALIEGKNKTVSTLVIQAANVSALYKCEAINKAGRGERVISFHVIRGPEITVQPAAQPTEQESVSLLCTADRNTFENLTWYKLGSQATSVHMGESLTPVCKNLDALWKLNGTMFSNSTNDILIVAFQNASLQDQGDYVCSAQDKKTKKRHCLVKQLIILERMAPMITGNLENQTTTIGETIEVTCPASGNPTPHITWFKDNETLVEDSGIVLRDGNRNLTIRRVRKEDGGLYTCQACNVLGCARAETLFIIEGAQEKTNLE

`CC[C@H](C)[C@@H]1NC(=O)[C@H](Cc2ccccc2)NC(=O)c2cccc(c2)NC(=O)CSC[C@@H](C(=O)NCC(N)=O)NC(=O)[C@H](CCCNC(=N)N)NC(=O)[C@H](CCC(=O)O)NC(=O)[C@H](CC(C)C)NC(=O)[C@H](CO)NC(=O)[C@H]([C@@H](C)CC)NC(=O)[C@@H]2CCCN2C(=O)[C@H](Cc2c[nH]cn2)NC(=O)[C@H](C(C)C)NC(=O)[C@H](CCCCN)NC(=O)[C@H](C(C)C)NC(=O)[C@H](CCCNC(=N)N)NC(=O)[C@H](Cc2ccc(O)cc2)NC(=O)[C@H](Cc2c[nH]cn2)NC(=O)CNC1=O` [BL1, MCAB-L-Phe-Ile-Gly-His-Tyr-Arg-Val-Lys-Val-His-Pro-Ile-Ser-Leu-Glu-Arg-Cys] (FIGHYRVKVHPISLERCG-NH2; linker N-17 via X1): the koff was found to be 0.0008 s⁻¹ at mouse VEGFR2 and 0.0009 s⁻¹ on human VEGFR2. This compound gave an IC50 in the experiment with HUVEC of 60 nM.

Consider `CC[C@H](C)[C@@H]1NC(=O)[C@H](Cc2ccc(O)cc2)NC(=O)[C@H](CC(C)C)NC(=O)CNC(=O)[C@H](CC(N)=O)NC(=O)[C@H](C(C)C)NC(=O)[C@H](Cc2c[nH]c3ccccc23)NC(=O)[C@@H]2CCCN2C(=O)[C@H](CC(=O)O)NC(=O)[C@H]([C@@H](C)O)NC(=O)[C@H](CO)NC(=O)[C@H](C(C)C)NC(=O)[C@H](C(C)C)NC(=O)[C@H](C(C)C)NC(=O)[C@H](Cc2ccccc2)NC(=O)CSC[C@@H](C(=O)NCC(N)=O)NC(=O)[C@H](CC(=O)O)NC1=O` [L1, ClAc-L-Phe-Val-Val-Val-Ser-Thr-Asp-Pro-Trp-Val-Asn-Gly-Leu-Tyr-Ile-Asp-Cys], for which the koff at human VEGFR2 worked out at 0.002 s⁻¹. Moreover, in the experiment on HUVEC, the IC50 turned out to be 60 nM. The angiogenesis inhibiting effect entry in experiment [1] is on record as “angiogenesis inhibiting effect stronger than that of Suramin”.
